Structures are written as SMILES.

Series [1] in a line: Metabolite HT-2800 in microsomes incubated with HT-2157, mouse. Type of series: in vitro ADME. As to the method: (§1) Such HT-2157 administration studies were carried out in several animal models, including rats, dogs (as well as mice). In this regard, the major human metabolite of HT-2157, HT-2800, was found in human, mouse, and monkey microsomes following incubation with the HT-2157 compound, but it was not detected in rat or dog microsomes or in plasma collected from dogs dosed with HT-2157.

Series [2] is described as follows: Ninety-day study with HT-2157, methemoglobin formation, mice. Type of series: in vivo. The source says:
(§2) These findings indicate that a process of hemolytic anemia and compensatory hematopoietic response to anemia occurred in the animals. The hemolytic anemia was reversible upon discontinuation of drug treatment. In animals at high doses, there were also increases in methemoglobin of between 30 and 40% in treatment as compared to control animals. These increases resolved 1 to 2 weeks after discontinuation of dosing.

The nature of series [3]: Metabolite HT-2800 in plasma of dogs dosed with HT-2157. Format: in vivo, dog. To be noted: plasma collected from dogs dosed with HT-2157. As to the method: as §1
Series [4] in a line: Metabolite HT-2800 in microsomes incubated with HT-2157, rat. Type of series: in vitro ADME. As to the method:
as §1

Series [5] is described as follows: Metabolite HT-2800 in microsomes incubated with HT-2157, dog. Type of series: in vitro ADME. As to the method: as §1
The nature of series [6]: Metabolite HT-2800 in microsomes incubated with HT-2157, monkey. Format: in vitro ADME. As to the method:
as §1

For series [7] the following is noted: after systemic administration; Oegren et al. 2006; cited from earlier work.
Series [8] can be described thus: 28-day oral toxicity study with non-enteric coated HT-2157, dog. To be noted: for Cmax / AUC(0-t): plasma, 50 mg/kg/day, at NOEL; for AUC(0-t): read-out: AUC0-24 of HT-2157 in plasma. Format: in vivo. As to the method: (§3) Consequently, separate toxicokinetic studies directed to […] (without an enteric coating) were performed in rat and in dog, which is considered the more sensitive species. […] In these studies, the non-toxic dose level for oral administration of HT-2157 over 28 days was 30 mg/kg/day for female rats, 100 mg/kg/day for male rats and 50 mg/kg/day for dogs (both sexes). Table 1 lists the mean Cmax and AUC values of HT-2157 in the plasma associated with these dosages: […]

A further series is described as follows: in vivo. To be noted: rat, po; for AUC(0-t): AUC0-24 of HT-2157 in plasma; for Cmax: Cmax of HT-2157 in plasma; for NOEL / NOEL (first NOEL column) / non-toxic dose level: 28 days. As to the method: as §3
A short description of series [9]: Repeat-dose animal toxicology studies, PO. Type of series: in vivo, mice, rats, dogs. To be noted: non-enteric coated.
Series [10] in a line: Metabolite HT-2800 in microsomes incubated with HT-2157, human. Format: in vitro ADME. Here is the method:
as §1

A short description of series [11]: Ninety-day study with HT-2157, methemoglobin formation, rats. Format: in vivo.
Description: as §2

A short description of series [12]: Ninety-day study with HT-2157, methemoglobin formation, dogs. Type of series: in vivo.
Description: as §2

Where [13] appears, read: female, female dog, day 1 of dosing.
Where [14] appears, read: female, female dog, day 28 of dosing.
Setting [15] is: male, male dog, day 1 of dosing.
[16] abbreviates: male, male dog, day 28 of dosing.

As a reminder, the Cmax is the maximum level reached in the sampled fluid or tissue. Turning to `O=C1C(=Nc2cccc(C(F)(F)F)c2)c2ccccc2N1c1ccccc1` [HT-2157], the “metabolite HT-2800 following incubation with HT-2157” value in series [1] is “found”; in series [4] it was “not detected”; in [5], “not detected”; in [6] it was “found”; in [10], “found”. Also, the figures for the “dose with statistically significant methemoglobin formation” value in series [2], in series [11] and in [12] were 750 mg/kg/day, 150 mg/kg/day and at least 30 mg/kg/day, respectively. Also, the “metabolite HT-2800 in plasma” value in series [3] is listed as “not detected”. The blood-brain barrier passage entry in series [7] is “can cross the blood-brain barrier”. In addition, the non-toxic dose level in [8] (both, in vivo, 28 days) amounted to 50 mg/kg/day; in “in vivo” (female), 30 mg/kg/day; in “in vivo” (male) it was 100 mg/kg/day. Besides, the “NOEL” value came out at 1000 in series [8] (female, in vivo, 28 days); 1000 in series [8] (male, in vivo, 28 days); 177 in “in vivo” (female); 590 in “in vivo” (male). Further, the “NOEL (first NOEL column)” value was 50 in [8] (female, in vivo, 28 days); 50 in [8] (male, in vivo, 28 days); 30 in the series “in vivo” (female); 100 in the series “in vivo” (male). The maximum concentration (Cmax) was 162 ng/mL in [8] (setting [13]); 104 ng/mL in series [8] (setting [14]); 99 ng/mL in series [8] (setting [15]); 87.1 ng/mL in series [8] (setting [16]); 109 ng/mL in the series “in vivo” (female, 30 mg/kg/day); 252 ng/mL in the series “in vivo” (male, 100 mg/kg/day). For the same molecule, the AUC(0-t) is 571 ng·h/mL in [8] (setting [13]); 799 ng·h/mL in [8] (setting [14]); 676 ng·h/mL in series [8] (setting [15]); 550 ng·h/mL in series [8] (setting [16]); 283 ng·h/mL in the series “in vivo” (female, 30 mg/kg/day); 1380 ng·h/mL in “in vivo” (male, 100 mg/kg/day). The “AUC0-24 of HT-2157 in plasma” value in the series “in vivo” (female, 30 mg/kg/day) amounted to 235 ng·h/mL; in “in vivo” (male, 100 mg/kg/day), 1445 ng·h/mL. Moreover, the “drug-related findings in repeat-dose toxicology” value in series [9] (mice up to 3 months, rats up to 1 year, dogs up to 9 months) is “dose-dependent shifts in hemoglobin fractions (methemoglobin, carboxyhemoglobin, oxyhemoglobin) and mild to moderate reversible hemolytic anemia with associated compensatory responses”.
Take `O=C1C(=Nc2cccc(C(F)(F)F)c2)c2ccccc2N1c1ccc(O)cc1` [HT-2800]: the “drug-related findings in repeat-dose toxicology” value in series [9] (rats up to 6 months, dogs 9 months) was “dose-dependent shifts in hemoglobin fractions (methemoglobin, carboxyhemoglobin, oxyhemoglobin) and mild to moderate reversible hemolytic anemia with associated compensatory responses”.

The values above are taken from patent US8277842B1, “Enteric-coated HT-2157 compositions and methods of their use” (Dart NeuroScience (Cayman) Ltd., priority 2012, dated 2012).
